Test results taken from EP0005658A1, “Peptide derivatives analogue to encephalines, process for their preparation and their therapeutical application” (Laboratoire le Brun S.A. Société dite:, priority 1978, dated 1979).
“And” between values parts separate entries of the source, which are not always exact repeats. Equal entries are not always repeated.

Tests used:
iléon de cobaye = iléon de cobaye (Cavia porcellus, UniProt A0ACM8Q262); experiment: cell-based; format: cell-based; details: for Activité Morphine =100: activity relative to morphine (= 100) in concomitant tests
Sequence of iléon de cobaye (A0ACM8Q262 1-400): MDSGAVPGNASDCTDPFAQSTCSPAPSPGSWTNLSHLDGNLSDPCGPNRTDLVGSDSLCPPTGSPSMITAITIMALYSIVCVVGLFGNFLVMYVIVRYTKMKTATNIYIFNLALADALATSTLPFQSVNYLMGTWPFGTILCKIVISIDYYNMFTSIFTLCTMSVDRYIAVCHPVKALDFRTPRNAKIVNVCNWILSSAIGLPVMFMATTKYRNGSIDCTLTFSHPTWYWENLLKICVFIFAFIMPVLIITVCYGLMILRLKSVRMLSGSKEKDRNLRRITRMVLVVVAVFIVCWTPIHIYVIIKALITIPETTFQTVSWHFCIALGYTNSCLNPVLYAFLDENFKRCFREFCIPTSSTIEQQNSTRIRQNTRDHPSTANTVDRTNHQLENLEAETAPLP
Method: I. Action analgésique par rapport à la morphine comme substance de référence qui a été contrôlée • a) Sur organe isolé. - iléon de cobaye
On a utilisé la technique de stimulation transmu- rale de l'iléon de cobaye de PATON (W.D.M. PATON, "The rés- ponse of the guinea-pig ileum to electrical stimulation by coaxial electrodes" - J. Physiol. (London), 127, 40P-41P (1955) et PATON (W.D.M.) - Brit.J. Pharmacol. 11).
• - Les essais ont été réalisés dans une cuve de 35 ml irriguée par une solution de KREBS. • - Les stimulations électriques, supramaximales (6 par minute - […]) étaient ajustées à chaque essai. Courant rectangulaire - durée-0,5 milliseconde. • - Les concentrations des différents produits étudiés, ainsi que celles de la morphine qui a servi de corps de référence, sont exprimées en nanomoles (nM) par litre. • - Pour chaque concentration, le temps de contact a été de 3 minutes. Chaque essai était séparé du suivant par une période de 10 à 20 minutes. • - Les résultats sont exprimés en pourcentage d'inhibition de la concentration consécutive à la stimulation électri--que de l'iléon. On a ensuite calculé les doses actives 50 par la méthode de Parker et Waud (J. of pharmacology, 1971, 177, n°4) qui ont été comparées à celle de la morphine dans des essais concomitants.

Vas déferens de souris = Vas déferens de souris (Mus musculus, UniProt P32300); experiment: Transmural electrical stimulation of mouse vas deferens (Hughes and Kosterlitz); format: cell-based; details: contact time 3 minutes, read-out: % d'inhibition
Sequence of Vas déferens de souris (P32300 whole entry): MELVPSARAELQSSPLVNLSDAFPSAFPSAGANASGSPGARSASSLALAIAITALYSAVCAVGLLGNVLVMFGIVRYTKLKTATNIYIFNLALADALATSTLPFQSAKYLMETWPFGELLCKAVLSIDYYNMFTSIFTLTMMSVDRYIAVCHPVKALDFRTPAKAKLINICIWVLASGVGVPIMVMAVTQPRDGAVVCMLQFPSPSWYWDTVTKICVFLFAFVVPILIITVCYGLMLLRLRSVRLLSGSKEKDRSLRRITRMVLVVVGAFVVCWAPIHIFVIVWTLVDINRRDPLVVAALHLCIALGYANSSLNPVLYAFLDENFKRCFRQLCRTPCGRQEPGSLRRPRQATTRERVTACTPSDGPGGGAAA
Method: On a utilisé une technique de stimulation transmu- rale du canal différent de la souris, adaptée à celle décrite par HUCHES et KOSTERLITZ (J.HUGUES, H.W.KOSTERLITZ and Frances M.LESLIE, "Effect of morphine ou adrenergic transmission in the mouse vas deferens. Assessment of ago- nist and antagonist potencies of narcotic analgesics".-Br J. Pharmac. 53 371-381 (1975).
• - Les essais ont été réalisés dans une cuve de 7 ml irriguée par une solution de KREBS. • - Les stimulations électriques, supramaximales (6 par minute) étaient ajustées à chaque essai. • - Les concentrations des différents produits étudiés sont exprimées en nM par litre. • - Pour chaque concentration le temps de contact a été de 3 minutes. Dans les cas où le maximum d'inhibition a été atteint en un temps plus court, le fait a été signalé. Chaque essai était séparé du suivant par une période de 10 à 20 minutes. • - Les résultats sont exprimés en pourcentage d'inhibition de la concentration consécutive à la stimulation électrique du canal déférent. On a ensuite calculé les doses actives 50 par la méthode de Parker & Wand (J.Pharm. Exper. Therap.96-99 (1949).

[1] = target: sites de liaison à haute et moyenne affinité de la leucine-enképhaline 3-R de membranes striatales de souris; experiment: Competition with tritiated Leu-enkephalin binding on mouse striatal membranes; details: displacement of a fixed concentration of Leucine-Enképhaline 3-H
Method: On a déterminé le pouvoir compétiteur des dérivés de l'invention vis-à-vis des sites de liaison à haute et moyenne affinité de la leucine-enképhaline 3-R de membranes striatales de souris.
Les conditions de préparation des membranes et d'incubation ont été les mêmes que celles qui sont décrites dans Audigier et Coll. (C. Acad. Sciences plus Euro- pean J. of Pharmacol.).
Des concentrations croissantes des divers composés synthétisés ont été opposées à une concentration fixe de Leucine-Enképhaline 3-H et les déplacements observés ont permis dans chaque cas de déterminer une constante d'inhi- bition (Ki).

[2] = Acute toxicity in the mouse; design: species or system souris; details: in vivo, IV route, read-out: D.L. 5a
Method: Les dérivés de formule générale I bénéficient d'une excellente tolérance et d'une faible toxicité qui a été plus particulièrement étudiée sur lés dérivés N° 12 et 13, qui ont fait l'objet d'une épreuve de toxicité aiguë chez la souris.
Les D.L. 5a obtenues sont respectivement de : • 725 ± 25 mg/kg par voie IV pour le dérivé.n° 12. • et 892 ± 31 mg/kg "" " pour le dérivé n° 13.

rat [3] = experiment: Catalepsy in the rat (psychotropic action); format: in vivo
From the text: Elle a été évaluée par la recherche d'une catalepsie chez le rat.
Ces essais ont été réalisés avec des rats femelles indexes d'organisées pathogènes spécifiques pesant de 200 à 220 g.
L'effet cataleptique est mesuré en suspendant le rat par ses pattes antérieures au rebord de la cage d'expérience : un rat cataleptique reste dans cette position alors qu'un animal normal l'abandonne aussitôt, voire ne la prend pas du tout.
La catalepsie est appréciée de la façon suivante: • 0 : pas de catalepsie • 1 : catalepsie liminaire • 2 : catalepsie d'intensité moyenne • […] : catalepsie très prononcée
Les animaux sont traités par voie sous cutanée.
Les expériences ont été effectuées à l'aveugle, l'observateur ignorant les traitements.

rat [4] = experiment: Castor oil diarrhoea test in the rat; format: in vivo
souris = experiment: Hot plate test in the mouse (analgesia); details: 10 mg/kg compared with morphine 1 mg/kg, taking molarities into account
[5] = 2 heures after product, oral 3 mg/kg, 10 rats
[6] = 2 heures after product, oral 10 mg/kg, 10 rats (Codéine base: 20 rats)
[7] = 2 heures after product, oral 30 mg/kg, 10 rats
[8] = 4 heures after product, oral 3 mg/kg, 10 rats
[9] = 4 heures after product, oral 10 mg/kg, 10 rats (Codéine base: 20 rats)
[10] = 4 heures after product, oral 30 mg/kg, 10 rats

In the case of `CSCC[C@H](NC(=O)[C@H](Cc1ccccc1)NC(=O)CNC(=O)[C@@H](C)NC(=O)[C@@H](N)Cc1ccc(O)cc1)C(=O)NCCCCCNS(=O)(=O)c1cccc2c(N(C)C)cccc12` [Dérivé n° 13], the inhibition at 0.15 µM (iléon de cobaye; 150 nM/l, contact time 3 minutes, read-out: % d'inhibition) is reported as 34.2%, the inhibition at 0.3 µM (iléon de cobaye; 300 nM/l, contact time 3 minutes, read-out: % d'inhibition) is reported as 46.4% and the inhibition at 0.6 µM (iléon de cobaye; 600 nM/l, contact time 3 minutes, read-out: % d'inhibition) is reported as 68.1%. The “Activité Morphine =100” value (iléon de cobaye) was 12,7, the inhibition at 0.6 µM (Vas déferens de souris; 600 nM/l) was 38% and the inhibition at 0.75 µM (Vas déferens de souris; 750 nM/l) was 55%. It also gave an inhibition at 0.9 µM (Vas déferens de souris; 900 nM/l) of 83.3%, an inhibition at 1.5 µM (Vas déferens de souris; 1 500 nM/l) of 90.5% and a Ki [1] of 21 ± 5 nM. The LD50 [2] was 892 ± 31 mg/kg.

Compound `CSCC[C@H](NC(=O)[C@H](Cc1ccccc1)NC(=O)CNC(=O)[C@@H](C)NC(=O)[C@@H](N)Cc1ccc(O)cc1)C(=O)NCCNS(=O)(=O)c1cccc2c(N(C)C)cccc12` [Dérivé n° 12, Tyr-D Ala- Gly-Phe-Met-NH-(CH2)2-NH-SO2 -X, dans lequel X est un groupe 5 diméthylamino-α-naphtyle] has an inhibition at 0.012 µM (iléon de cobaye; 12 nM/l, contact time 3 minutes, read-out: % d'inhibition) of 28.3%, an inhibition at 0.018 µM (iléon de cobaye; 18 nM/l, contact time 3 minutes, read-out: % d'inhibition) of 35.5% and an inhibition at 0.024 µM (iléon de cobaye; 24 nM/l, contact time 3 minutes, read-out: % d'inhibition) of 51.3%. The inhibition at 0.06 µM (iléon de cobaye; 60 nM/l, contact time 3 minutes, read-out: % d'inhibition) was 76.3%, the “Activité Morphine =100” value (iléon de cobaye) was 147 and the inhibition at 0.0012 µM (Vas déferens de souris; 1,2 nM/l) was 41.8%. The inhibition at 0.0018 µM (Vas déferens de souris; 1,8 nM/l) was 50%, the inhibition at 0.0024 µM (Vas déferens de souris; 2,4 nM/l) was 63% and the “D.A. 50/ sous cut.” value (rat [3]; catalepsy, subcutaneous route, female rats) was 5 mg/kg. The “Nombre d'animaux non diarrhéiques” value (rat [4]; [5]) was 6, the “Nombre d'animaux non diarrhéiques” value (rat [4]; [6]) was 10 and the “Nombre d'animaux non diarrhéiques” value (rat [4]; [7]) was 10. For the same compound, the “Nombre d'animaux non diarrhéiques” value (rat [4]; [8]) was 3, the “Nombre d'animaux non diarrhéiques” value (rat [4]; [9]) was 6 and the “Nombre d'animaux non diarrhéiques” value (rat [4]; [10]) was 10. For the same compound, the “action antidiarrhéique” value (rat [4]; statement in words, 30 mg/kg, four hours) was “protège tous les animaux”, the Ki [1] was 5 ± 2 nM and the LD50 [2] was 725 ± 25 mg/kg. The “coefficient d'activité” value (souris) was ~35%.

In the case of `CC(C)C[C@H](NC(=O)[C@H](Cc1ccccc1)NC(=O)CNC(=O)CNC(=O)[C@@H](N)Cc1ccc(O)cc1)C(=O)O` [Leu-enképhaline, reference compound], the Ki [1] is reported as 5 ± 1.8 nM.

In the case of `COc1ccc2c3c1O[C@H]1[C@@H](O)C=C[C@H]4[C@@H](C2)N(C)CC[C@@]341` [Codéine base, Codéine], the “Nombre d'animaux non diarrhéiques” value (rat [4]; [5]) is reported as 7, the “Nombre d'animaux non diarrhéiques” value (rat [4]; [6]) is reported as 19 and the “Nombre d'animaux non diarrhéiques” value (rat [4]; [7]) is reported as 10. The “Nombre d'animaux non diarrhéiques” value (rat [4]; [8]) was 4, the “Nombre d'animaux non diarrhéiques” value (rat [4]; [9]) was 14 and the “Nombre d'animaux non diarrhéiques” value (rat [4]; [10]) was 8.

In the case of `CN1CC[C@]23c4c5ccc(O)c4O[C@H]2[C@@H](O)C=C[C@H]3[C@H]1C5` [Morphine], the “D.A. 50/ sous cut.” value (rat [3]; rat, in vivo, sc) is reported as 2,5 mg/kg, the “Nombre d'animaux non diarrhéiques” value (rat [4]; rat, in vivo, po, 3 mg/kg) is reported as 9 and 5 and the “Nombre d'animaux non diarrhéiques” value (rat [4]; rat, in vivo, po, 10 mg/kg) is reported as 10 and 8.

Compound `O=C(CCCN1CCC(O)(c2ccc(Cl)cc2)CC1)c1ccc(F)cc1` [Halopéridol] has an ED50 (rat [3]; Rattus norvegicus, sc, catalepsy, subcutaneous route, female rats, read-out: D.A. 50/ sous cut.) of 0.2 mg/kg.
